# In paper PMC7956587, “Molecular Docking Studies and Biological Evaluation of Berberine–Benzothiazole Derivatives as an Anti-Influenza Agent via Blocking of Neuraminidase” (International Journal of Molecular Sciences, 2021):
# Test system: influenza A virus A/PR/8/34 (H1N1)
# Assay: In vitro antiviral bioassay (CPE reduction, SRB) in MDCK cells
# Format: cell-based
# Settings: not given
row,SMILES,IC50 A/PR/8/34 (H1N1)
1,COc1ccc2cc3[n+](cc2c1OCCCCCNc1nc2ccc(C#N)cc2s1)CCc1cc2c(cc1-3)OCO2 [BBD 13],did not show any activity

# Same assay, conditions: Influenza A virus, MDCK, 48 h
row,SMILES,IC50
1,COc1ccc2cc3[n+](cc2c1OCCCCCNc1nc2ccc(C(F)(F)F)cc2s1)CCc1cc2c(cc1-3)OCO2 [BBD 12],28.7 ± 0.514 µg/mL
2,"CCOC(=O)C1=C[C@@H](OC(CC)CC)[C@H](NC(C)=O)[C@@H](N)C1 [OSELTAMIVIR, Oseltamivir phosphate, reference compound]",11.6 ± 1.43 µg/mL
3,"COc1ccc2cc3[n+](cc2c1OC)CCc1cc2c(cc1-3)OCO2 [BERBERINE, Berberine]",36.1 ± 1.57 µg/mL

# Same assay, conditions: Therapeutic index, TI = CC50/IC50
row,SMILES,TI A/PR/8/34 (H1N1)
1,COc1ccc2cc3[n+](cc2c1OCCCCCNc1nc2ccc(C(F)(F)F)cc2s1)CCc1cc2c(cc1-3)OCO2 [BBD 12],10.52
2,"CCOC(=O)C1=C[C@@H](OC(CC)CC)[C@H](NC(C)=O)[C@@H](N)C1 [OSELTAMIVIR, Oseltamivir phosphate, reference compound]",17.75
3,"COc1ccc2cc3[n+](cc2c1OC)CCc1cc2c(cc1-3)OCO2 [BERBERINE, Berberine]",1.808

# Test system: influenza A virus A/Vic/3/75 (H3N2)
# Assay: as above
# Format: cell-based
# Settings: not given
row,SMILES,IC50 A/VIC/3/75 (H3N2)
1,COc1ccc2cc3[n+](cc2c1OCCCCCNc1nc2ccc(C#N)cc2s1)CCc1cc2c(cc1-3)OCO2 [BBD 13],did not show any activity

# Same assay, conditions: Influenza A virus, H3N2, MDCK, 48 h
row,SMILES,IC50
1,COc1ccc2cc3[n+](cc2c1OCCCCCNc1nc2ccc(C(F)(F)F)cc2s1)CCc1cc2c(cc1-3)OCO2 [BBD 12],44.6 ± 1.65 µg/mL
2,"CCOC(=O)C1=C[C@@H](OC(CC)CC)[C@H](NC(C)=O)[C@@H](N)C1 [OSELTAMIVIR, Oseltamivir phosphate, reference compound]",22.1 ± 1.07 µg/mL
3,"COc1ccc2cc3[n+](cc2c1OC)CCc1cc2c(cc1-3)OCO2 [BERBERINE, Berberine]",41.6 ± 2.04 µg/mL

# Same assay, conditions: Therapeutic index, TI = CC50/IC50
row,SMILES,TI A/VIC/3/75 (H3N2)
1,COc1ccc2cc3[n+](cc2c1OCCCCCNc1nc2ccc(C(F)(F)F)cc2s1)CCc1cc2c(cc1-3)OCO2 [BBD 12],6.784
2,"CCOC(=O)C1=C[C@@H](OC(CC)CC)[C@H](NC(C)=O)[C@@H](N)C1 [OSELTAMIVIR, Oseltamivir phosphate, reference compound]",9.27
3,"COc1ccc2cc3[n+](cc2c1OC)CCc1cc2c(cc1-3)OCO2 [BERBERINE, Berberine]",1.571

# Test system: influenza B virus B/Lee/40
# Assay: as above
# Format: cell-based
# Settings: Influenza B virus; MDCK cells, 50 TCID50, 48 h, mean ± S.D., triplicate
row,SMILES,IC50
1,COc1ccc2cc3[n+](cc2c1OCCCCCNc1nc2ccc(C(F)(F)F)cc2s1)CCc1cc2c(cc1-3)OCO2 [BBD 12],67.7 ± 1.52 µg/mL
2,"CCOC(=O)C1=C[C@@H](OC(CC)CC)[C@H](NC(C)=O)[C@@H](N)C1 [OSELTAMIVIR, Oseltamivir phosphate, reference compound]",55.9 ± 1.13 µg/mL
3,"COc1ccc2cc3[n+](cc2c1OC)CCc1cc2c(cc1-3)OCO2 [BERBERINE, Berberine]",60.8 ± 1.86 µg/mL

# Same assay, conditions: MDCK cells, 50 TCID50, 48 h, mean ± S.D., triplicate
row,SMILES,IC50 B/LEE/40
1,COc1ccc2cc3[n+](cc2c1OCCCCCNc1nc2ccc(C#N)cc2s1)CCc1cc2c(cc1-3)OCO2 [BBD 13],did not show any activity

# Same assay, conditions: Therapeutic index, TI = CC50/IC50
row,SMILES,TI B/LEE/40
1,COc1ccc2cc3[n+](cc2c1OCCCCCNc1nc2ccc(C(F)(F)F)cc2s1)CCc1cc2c(cc1-3)OCO2 [BBD 12],4.468
2,"CCOC(=O)C1=C[C@@H](OC(CC)CC)[C@H](NC(C)=O)[C@@H](N)C1 [OSELTAMIVIR, Oseltamivir phosphate, reference compound]",3.67
3,"COc1ccc2cc3[n+](cc2c1OC)CCc1cc2c(cc1-3)OCO2 [BERBERINE, Berberine]",1.07

# Test system: influenza B virus B/Maryland/1/59
# Assay: as above
# Format: cell-based
# Settings: Influenza B virus, MDCK, 48 h, read-out: IC50 B/MARYLAND/1/59
row,SMILES,IC50
1,"CCOC(=O)C1=C[C@@H](OC(CC)CC)[C@H](NC(C)=O)[C@@H](N)C1 [OSELTAMIVIR, Oseltamivir phosphate, reference compound]",44.2 ± 1.83 µg/mL
2,"COc1ccc2cc3[n+](cc2c1OC)CCc1cc2c(cc1-3)OCO2 [BERBERINE, Berberine]",54.6 ± 1.45 µg/mL

# Same assay, conditions: Influenza B virus; MDCK cells, 50 TCID50, 48 h, mean ± S.D., triplicate; read-out: IC50 B/MARYLAND/1/59
row,SMILES,IC50
1,COc1ccc2cc3[n+](cc2c1OCCCCCNc1nc2ccc(C(F)(F)F)cc2s1)CCc1cc2c(cc1-3)OCO2 [BBD 12],66.2 ± 1.82 µg/mL

# Same assay, conditions: MDCK cells, 50 TCID50, 48 h, mean ± S.D., triplicate
row,SMILES,IC50 B/MARYLAND/1/59
1,COc1ccc2cc3[n+](cc2c1OCCCCCNc1nc2ccc(C#N)cc2s1)CCc1cc2c(cc1-3)OCO2 [BBD 13],did not show any activity

# Same assay, conditions: Therapeutic index, TI = CC50/IC50
row,SMILES,TI B/MARYLAND/1/59
1,COc1ccc2cc3[n+](cc2c1OCCCCCNc1nc2ccc(C(F)(F)F)cc2s1)CCc1cc2c(cc1-3)OCO2 [BBD 12],4.565
2,"CCOC(=O)C1=C[C@@H](OC(CC)CC)[C@H](NC(C)=O)[C@@H](N)C1 [OSELTAMIVIR, Oseltamivir phosphate, reference compound]",4.64
3,"COc1ccc2cc3[n+](cc2c1OC)CCc1cc2c(cc1-3)OCO2 [BERBERINE, Berberine]",1.196

# Molecular target: influenza virus neuraminidase (Influenza A virus, UniProt P03468)
# Assay: Viral neuraminidase inhibition assay (NA-Star kit)
# Format: biochemical, influenza A/PR/8/34 virus
# Settings: at 0.1 μg/mL; (Treatment/Virus) × 100, remaining activity
# influenza virus neuraminidase, sequence (P03468 whole entry, looked up): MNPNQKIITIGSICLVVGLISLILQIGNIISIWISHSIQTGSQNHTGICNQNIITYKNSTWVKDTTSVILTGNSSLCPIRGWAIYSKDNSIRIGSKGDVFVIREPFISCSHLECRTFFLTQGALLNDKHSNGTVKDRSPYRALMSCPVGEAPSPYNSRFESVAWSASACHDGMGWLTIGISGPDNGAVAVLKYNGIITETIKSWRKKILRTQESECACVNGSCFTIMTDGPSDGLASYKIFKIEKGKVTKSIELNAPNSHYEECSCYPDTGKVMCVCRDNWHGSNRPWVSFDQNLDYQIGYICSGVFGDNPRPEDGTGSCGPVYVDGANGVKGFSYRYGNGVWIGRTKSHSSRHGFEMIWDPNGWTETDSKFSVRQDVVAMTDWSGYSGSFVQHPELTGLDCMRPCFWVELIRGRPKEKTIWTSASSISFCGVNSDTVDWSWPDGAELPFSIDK
row,SMILES,activity at 0.1 µg/mL
1,"CCOC(=O)C1=C[C@@H](OC(CC)CC)[C@H](NC(C)=O)[C@@H](N)C1 [OSELTAMIVIR, Oseltamivir phosphate, reference compound]",39.1%

# Same assay, conditions: at 1 μg/mL; (Treatment/Virus) × 100, remaining activity
row,SMILES,activity at 1 µg/mL
1,"CCOC(=O)C1=C[C@@H](OC(CC)CC)[C@H](NC(C)=O)[C@@H](N)C1 [OSELTAMIVIR, Oseltamivir phosphate, reference compound]",29.1%

# Same assay, conditions: at 10 μg/mL; (Treatment/Virus) × 100, remaining activity
row,SMILES,activity at 10 µg/mL
1,"CCOC(=O)C1=C[C@@H](OC(CC)CC)[C@H](NC(C)=O)[C@@H](N)C1 [OSELTAMIVIR, Oseltamivir phosphate, reference compound]",18.3%

# Test system: MDCK cells
# Assay: not given
# Settings: dog, 48 h
row,SMILES,CC50
1,COc1ccc2cc3[n+](cc2c1OCCCCCNc1nc2ccc(C(F)(F)F)cc2s1)CCc1cc2c(cc1-3)OCO2 [BBD 12],302.3 ± 2.446 µg/mL

# Test system: not listed separately
# Assay: in vitro
# Settings: dog
row,SMILES,CC50 at 48 h
1,COc1ccc2cc3[n+](cc2c1OCCCCCNc1nc2ccc(C(F)(F)F)cc2s1)CCc1cc2c(cc1-3)OCO2 [BBD 12],> 100 µg/mL
2,COc1ccc2cc3[n+](cc2c1OCCCCCNc1nc2ccc(C#N)cc2s1)CCc1cc2c(cc1-3)OCO2 [BBD 13],45.1 ± 0.864 µg/mL

# Test system: not listed separately
# Assay: Cytotoxicity on MDCK cells, SRB method
# Settings: dog
row,SMILES,CC50 at 48 h
1,"CCOC(=O)C1=C[C@@H](OC(CC)CC)[C@H](NC(C)=O)[C@@H](N)C1 [OSELTAMIVIR, Oseltamivir phosphate, reference compound]",> 100 µg/mL
2,"COc1ccc2cc3[n+](cc2c1OC)CCc1cc2c(cc1-3)OCO2 [BERBERINE, Berberine]",65.3 ± 1.92 µg/mL
